Assay results from patent US20040122081A1, “Pharmaceutical compositions and methods of using taxane derivatives” (priority 2002, published 2004).
Converted amounts (≈) assume the structure as drawn. “And” between values parts separate entries of the source, which are not always exact repeats. Identical values can stand only once. Like-named read-outs stand apart in the source and are kept apart here.

How the values were obtained:
Assay type in all cases: physicochemical
[1] = Intrinsic aqueous solubility; conditions: water
Text: Therefore, it was necessary to formulate the compound in such a way to get the desired solubility at a physiological pH and maintain stability prior to administration.

[2] = Solubility of compound in a co-solvent:water mixture; conditions: aqueous with cosolvent or surfactant or cyclodextrin, thermodynamic from solid, stirred over 16 hours
Experimental: Approximately 25 mg of drug substance was added to 2 mL aqueous solution of ethanol (33%, 50% and 75% v/v). An additional 10 mg of drug substance was added to the 75% sample as all drug appeared to dissolve. A similar study was performed by adding approximately 25 mg drug substance to 2 mL aqueous solution of tertiary butyl alcohol (33%, 50% and 66% v/v). Samples were stirred for over 16 hours, filtered through 0.45μ nylon syringe filters, diluted and analyzed by HPLC for drug concentration. The results shown in Table I indicate that among the conditions evaluated, 75% v/v dehydrated alcohol in water for injection provided the highest solubility. Based on the results of these studies, a formulation of 15 mg/mL drug substance in 75% v/v ethanol:water was selected for further studies.

[3] = Effect of pH on drug substance stability in ethanol:buffer solutions; conditions: for % Compound Remaining / Total Impurity Index: 1 mg/mL in 75% v/v ethanol:0.01M tartrate, 18 days 50° C.
Experimental: The effect of pH on the drug substance stability was also studied. The buffer pH providing maximum stability was determined by comparing the stability of prototype formulations of the drug substance. […] Relative area percents of drug peaks were evaluated following 2 days storage at 85° C. […] Subsequent experiments evaluated stability (1 mg drug/mL) in 75% v/v ethanol:0.01M tartrate buffers. Three mL aliquots of samples were dispensed into 5 cc Type I glass vials and closed with West 4405/50 20 mm stoppers. Percent drug substance remaining, and impurities were evaluated following 18 days storage at 50° C. and compared to initial values.

[4] = Solubility in aqueous dehydrated alcohol / POE castor oil solutions; conditions: aqueous dehydrated alcohol/POE castor oil solution, 24 °C, aqueous with cosolvent or surfactant or cyclodextrin, thermodynamic from solid, stirred 16 hours, read-out: Drug Solubility
Experimental: However, this solution cannot be injected directly into patients as the non-aqueous components exceed 20%, thus potentially causing irritation at the injection site. […] It has been shown that the precipitation can be avoided by inclusion of a co-solvent such as polyoxyethylated (POE) castor oil in the formulation. Subsequently, solubility of the drug substance was determined in solutions containing various amounts of dehydrated alcohol and POE castor oil. Approximately 20 mg of drug was added to 3 mL aliquots of the solutions shown below in Table III. Samples were stirred for 16 hours, filtered trough 0.45 micron nylon syringe filters and analyzed by HPLC for drug concentration.

[5] = Solubility in prototype formulation (75% v/v dehydrated alcohol, 10 mM tartrate buffer, apparent pH 5.4); conditions: aqueous with cosolvent or surfactant or cyclodextrin, thermodynamic from solid
Experimental: Solubility of four lots of drug substance was evaluated in the prototype formulation developed; 75% v/v dehydrated alcohol, 10 mM tartrate buffer resulting in an apparent pH of 5.4. 15 mg/mL of drug substance were used. 5 mL aliquots of the solution were dispensed into glass vials and an additional (˜50 mg) of drug substance was added. The vials were closed, sealed and stirred for 16 hours at room temperature. Samples were filtered and analyzed by HPLC for drug concentration.

[6] = Stability of solution in presence of POE castor oil at 50° C.; conditions: for Potency / Total Impurities: solution containing dehydrated alcohol and POE castor oil
Text: As shown below, the stability of the solution containing POE castor oil was much lower than the injection solution without the co-solvent.

[7] = Equilibrium solubility in diluted drug product (mixed two-vial formulation); conditions: 7.5% ethanol, 4% POE castor oil in tartrate buffer; for solubility thermodynamic at 16 h: 24 °C
Experimental: A study was also undertaken to determine the equilibrium solubility of Compound Ia in the mixture obtained by mixing the contents of the two vial formulation. Ten milliliters of the mixed solution was transferred into four 10 cc Type I flint glass vials. To each of these aliquots, approximately 25 mg of drug substance was added. A different lot of drug substance was added to each vial. Vials were closed with West Teflon-faced stoppers, sealed with aluminum seals and stirred for 16 hours at room temperature, protected from light. Samples were filtered through 0.45 micron hydrophilic PVDF membranes and analyzed by HPLC for drug concentration. Solubility results are listed below in Table VI. […] Samples were prepared and stirred at 24±3° C. for about 5 hours and placed in a 5±3° C. storage chamber for about 17 hours. Upon removal from the storage chamber, samples were immediately filtered and analyzed by HPLC for drug concentration.

[8] = Dilution of drug solution with aqueous diluents; conditions: 15 mg/mL drug solution (75% ethanol/10 mM tartrate buffer, apparent pH 5.4) diluted with 0.9% sodium chloride injection or 5% dextrose injection
[9] = Buffer pH 2.6, apparent pH 3.88
[10] = Buffer pH 3.0, apparent pH 4.67
[11] = Buffer pH 3.5, apparent pH 5.15
[12] = Buffer pH 3.6, apparent pH 5.20
[13] = Buffer pH 3.8, apparent pH 5.39
[14] = Buffer pH 4.0, apparent pH 5.69
[15] = Buffer pH 4.0, apparent pH 5.81
[16] = Buffer pH 4.2, apparent pH 5.99
[17] = Buffer pH 4.4, apparent pH 6.24

solubility [1]: < 0.1 µg/mL | solubility ([2]; ethanol:water mixture, Dehydrated Alcohol, USP 33% v/v in water): 30 µg/mL (≈ 32.8 µM) | solubility ([2]; ethanol:water mixture, Dehydrated Alcohol, USP 50% v/v in water): 1640 µg/mL (≈ 1790 µM) | solubility ([2]; ethanol:water mixture, Dehydrated Alcohol, USP 75% v/v in water): > 17500 µg/mL | solubility ([2]; tertiary butyl alcohol:water mixture, Tertiary Butyl Alcohol 33% v/v in water): 190 µg/mL (≈ 208 µM) | solubility ([2]; tertiary butyl alcohol:water mixture, Tertiary Butyl Alcohol 50% v/v in water): 3130 µg/mL (≈ 3420 µM) | solubility ([2]; tertiary butyl alcohol:water mixture, Tertiary Butyl Alcohol 66% v/v in water): 13000 µg/mL (≈ 14200 µM) | buffer pH at which the best stability was achieved ([3]; 0.2 mg drug/mL in 16.7% v/v ethanol:0.1M citrate buffers, 2 days storage at 85° C., HPLC relative area percent): 4.5 | apparent pH of the most stable solution ([3]; 1 mg drug/mL in 75% v/v ethanol:0.01M tartrate buffers, 18 days at 50° C., corresponds to tartrate buffer pH 3.8): 5.4 | % Compound Remaining [3, 9]: 94.4% | Total Impurity Index [3, 9]: 4.16 Area % | % Compound Remaining [3, 10]: 97.1% | Total Impurity Index [3, 10]: 2.51 Area % | % Compound Remaining [3, 11]: 97.1% | Total Impurity Index [3, 11]: 2.06 Area % | % Compound Remaining [3, 12]: 98.1% | Total Impurity Index [3, 12]: 1.36 Area % | % Compound Remaining [3, 13]: 101% | Total Impurity Index [3, 13]: 1.34 Area % | % Compound Remaining [3, 14]: 100% | Total Impurity Index [3, 14]: 1.62 Area % | % Compound Remaining [3, 15]: 98.1% | Total Impurity Index [3, 15]: 1.99 Area % | % Compound Remaining [3, 16]: 99% | Total Impurity Index [3, 16]: 1.67 Area % | % Compound Remaining [3, 17]: 100% | Total Impurity Index [3, 17]: 1.84 Area % | solubility at 16 h ([4]; Aqueous vehicle: Dehydrated Alcohol 3.75% v/v, POE Castor Oil 2% v/v): 960 µg/mL (≈ 1050 µM) | solubility at 16 h ([4]; Aqueous vehicle: Dehydrated Alcohol 7.50% v/v, POE Castor Oil 4% v/v): > 1500 µg/mL | solubility at 16 h ([4]; Aqueous vehicle: Dehydrated Alcohol 9.375% v/v, POE Castor Oil 5% v/v): 2910 µg/mL (≈ 3180 µM) | solubility thermodynamic ([5]; 5 °C, 5±3° C., read-out: equilibrium solubility): 23000 µg/mL (≈ 25200 µM) | solubility at 16 h ([5]; 25 °C, room temperature, average of four lots): ~22000 µg/mL (≈ 24100 µM) | Potency ([6]; 6 days @ 50° C.): 2000 µg/mL | Total Impurities ([6]; 6 days @ 50° C.): 10.9 | Potency ([6]; 16 days @ 50° C.): 1900 µg/mL | Total Impurities ([6]; 16 days @ 50° C.): 16.5 | Potency ([6]; Initial): 2200 µg/mL | Total Impurities ([6]; Initial): 2.1 | % potency remaining ([6]; injection solution (ethanol, pH 5.4 tartrate buffer) w/o POE castor oil, 28 days stored at 50° C.): 100% | % potency remaining ([6]; injection solution (ethanol, pH 5.4 tartrate buffer) with POE castor oil 4%, 16 days stored at 50° C.): 86% | solubility thermodynamic ([7]; 5 °C, aqueous with cosolvent or surfactant or cyclodextrin, thermodynamic from solid, 5 ± 3° C.): 2460 µg/mL (≈ 2690 µM) | solubility thermodynamic at 16 h ([7]; aqueous with cosolvent or surfactant or cyclodextrin, thermodynamic from solid, 24 ± 3° C., individual lots of drug substance, read-out: Equilibrium Solubility in Diluted Drug Product): 2580 µg/mL (≈ 2820 µM) | solubility thermodynamic at 16 h ([7]; aqueous with cosolvent or surfactant or cyclodextrin, thermodynamic from solid, Average @ 24 ± 3° C., four lots, read-out: Equilibrium Solubility in Diluted Drug Product, Average): ~2580 µg/mL (≈ 2820 µM) | Equilibrium Solubility in Diluted Drug Product ([7]; 24 ± 3° C., individual lots of drug substance): 2570 µg/mL and 2620 µg/mL and 2560 µg/mL | Equilibrium Solubility in Diluted Drug Product, Average ([7]; Average @ 24 ± 3° C., four lots): 2580 µg/mL | outcome of dilution with aqueous diluents [8]: drug precipitation
Structure (SMILES): CSCO[C@H]1C[C@H]2OC[C@@]2(OC(C)=O)[C@H]2[C@H](OC(=O)c3ccccc3)[C@]3(O)C[C@H](OC(=O)[C@H](O)[C@@H](NC(=O)c4ccccc4)c4ccccc4)C(C)=C([C@@H](OC(C)=O)C(=O)[C@]12C)C3(C)C [Compound Ia, 7-O-methylthiomethylpaclitaxel]
